Reference: patent US8445462B2, “Composition for the treatment of osteoarthritis” (Bioiberica, S.A., priority 2007, dated 2013)
Where a name gives a salt, the structure may show the parent alone.

System: experimental osteoarthritis induced by partial medial meniscectomy in guinea pigs
Assay: Experimental osteoarthritis induced by partial medial meniscectomy in guinea pigs: chondroprotective activity and modified Mankin histological evaluation
Type: in vivo, Dunkin Hartley (DH) guinea pigs
Conditions: CS 95 mg/kg/day, Man 60 mg/kg/day; for average chondroprotective activity (GAGs, cartilage structure, chondrocyte proliferation): oral gavage once a day for 70 days, blank control group 100%, operated control group 0%; for global histopathological score (modified Mankin) with respect to the operated group, result in words: oral, 70 days
Excerpt: The objective was to evaluate the chondroprotective activity (cartilage protective activity) of a composition formed by a mixture of chondroitin sulphate and mannosamine hydrochloride as sole active components, in a model of experimental osteoarthritis induced by partial medial meniscectomy in guinea pigs (A. M. Bendele, Progressive chronic osteoarthritis in femorotibial joints of partial medial meniscectomized guinea pigs, Vet. Pathol. 24, 444-448 (1987)), comparing said activity with the chondroprotective activity of chondroitin sulphate and of mannosamine hydrochloride.
Dunkin Hartley (DH) guinea pigs with a weight comprised between 580 and 699 g were used. A partial medial meniscectomy was performed in a part of them.
The following treatment groups were formed: blank control group (corresponding to healthy guinea pigs), operated control group (corresponding to guinea pigs in which a partial medial meniscectomy was performed to induce an experimental osteoarthritis in them), operated guinea pigs to which the sodium salt of chondroitin sulphate (95 mg/kg of body weight/day) was administered, operated guinea pigs to which mannosamine hydrochloride (60 mg/kg of body weight/day) was administered, operated guinea pigs to which a mixture of sodium salt of chondroitin sulphate (95 mg/kg of body weight/day) and mannosamine hydrochloride (60 mg/kg of body weight/day) was administered.
On the day after the surgery, the daily administration of the corresponding oral treatments by means of gastric gavage was started, the carrier used being water for injection. The blank control and operated control groups only received the carrier (water for injection) by oral route.
The treatments were administered once a day for 70 days (ten weeks). The body weight and the clinical signs of the animals were recorded twice a day. No remarkable clinical signs were observed throughout the treatment period.
On the day after the administration had ended, the animals were sacrificed by anaesthetic overdose (pentobarbital sodium) and the femorotibial joint of the right rear leg was removed for its fixing in 10% formol for at least 48 hours. Then, they were decalcified, included in paraffin, the necessary sections were obtained and the stainings with Hematoxylin-Eosin and Safranin-O-Fast Green (or Toluidine Blue) were performed for their histological evaluation, which was performed by a pathologist in a blind manner.
The severity of the osteoarthritic injuries was evaluated by means of the modified histologic/histochemical scale of Mankin et al. (H J. Mankin and L. Lipiello Biochemical and metabolic abnormalities in articular cartilage from osteoarthritic human hips. J. Bone Joint Surg.-Amer. 53-A, 523-537 (1971)). […]

Molecule	average chondroprotective activity (GAGs, cartilage structure, chondrocyte proliferation) [%]	global histopathological score (modified Mankin) with respect to the operated group, result in words
N[C@@H]1C(O)O[C@H](CO)[C@@H](O)[C@@H]1O (stereo partly drawn) [mannosamine hydrochloride, 2-amino-2-deoxy-D-mannose]	−21	no statistically significant differences
chondroitin sulphate	12	improvement with respect to the operated group, but without statistical significance
